Square brackets hold non-standard residues; d marks the D form. Ends that are not written are not given here. Peptide text beside a SMILES is read from it. NMeE = CN[C@@H](CCC(=O)O)C(=O)O Bounds are passed on as bounds.

A short description of this data set: Stability of peptide in human serum (residual adhesion inhibitory activity after serum incubation). It is filed as in vitro ADME. The note with it: for stability of activity in human serum (in words): 500 μg/mL in 90% human serum, 0 to 56 hours, FIGS. 2A to 2D; for residual adhesion inhibitory activity after serum treatment: untreated FNIII14 = 100. The method, then:
FNIII14 (500 μg/mL), each of the modified peptides (500 μg/mL), or a solution thereof was incubated in human serum (final concentration 90%; 0.01% of sodium azide as a preservative having been added thereto) under a condition of 37° C. and 5% CO2 for determined periods in a range of from 0 to 56 hours. Thereafter, each sample was diluted with DMEM (-) such that the peptide concentration in each well would be 25 μg/mL, and was inoculated onto a 96-well tissue culture plate together with A375SM cells prepared at 1.5×10^4/well, the 96-well tissue culture plate having been coated with 0.5 μg/mL of FN. After the plate was subjected to culturing for a certain time, […] of a PBS (-) solution containing 4% of formalin and 5% of sucrose was gently added to wells, and left to stand at room temperature for 1 hour, whereby the cells were immobilized. After the immobilization, the number of cells observed in predetermined four fields was counted and taken as the total number of cells. Non-adhered cells were removed by washing with a PBS (-) solution three times, and then the number of adhered cells in the same four fields as those mentioned above was counted under a microscope. Assuming that the adhesion inhibitory activity of FNIII14 that was not subjected to the treatment with serum was 100, the ratio of the residual adhesion inhibitory activity of FNIII14 or the modified peptide remaining after the serum treatment was evaluated in terms of percentage. In FIGS. 2A to 2C, white diamonds represent the results obtained using FNIII14, white squares represent the results obtained using Ace-FNIII14, white circles represent the results obtained using Met-FNIII14, and white triangles represent the results obtained using D-FNIII14. In FIG. 2D, black circles represent the activity of FNIII14, and black triangles represent the activity of D-Glu-FNIII14.

On to “Ac-TEATITGLEPGTEYTIYVIAL (N-terminus assumed) [Ace-FNIII14]”, for which, under “37° C.”, the “stability of activity in human serum (in words)” value (“stability of activity” for short) is on record as “more stabilized than FNIII14”.

Regarding `CC[C@H](C)[C@H](NC(=O)[C@@H](NC(=O)[C@H](Cc1ccc(O)cc1)NC(=O)[C@@H](NC(=O)[C@@H](NC(=O)[C@H](Cc1ccc(O)cc1)NC(=O)[C@H](CCC(=O)O)NC(=O)[C@@H](NC(=O)CNC(=O)[C@@H]1CCCN1C(=O)[C@H](CCC(=O)O)NC(=O)[C@H](CC(C)C)NC(=O)CNC(=O)[C@@H](NC(=O)[C@@H](NC(=O)[C@@H](NC(=O)[C@H](C)NC(=O)[C@H](CCC(=O)O)N(C)C(=O)[C@@H](N)[C@@H](C)O)[C@@H](C)O)[C@@H](C)CC)[C@@H](C)O)[C@@H](C)O)[C@@H](C)O)[C@@H](C)CC)C(C)C)C(=O)N[C@@H](C)C(=O)N[C@@H](CC(C)C)C(=O)O` [Met-FNIII14, [N-Me-Glu]^2-FNIII14] (H-T[NMeE]ATITGLEPGTEYTIYVIAL-OH; N-terminus and C-terminus assumed), where the note is “37° C.”, the “stability of activity” value is given as “more stabilized than FNIII14”.

`CC[C@H](C)[C@H](NC(=O)[C@@H](NC(=O)[C@H](Cc1ccc(O)cc1)NC(=O)[C@@H](NC(=O)[C@@H](NC(=O)[C@H](Cc1ccc(O)cc1)NC(=O)[C@H](CCC(=O)O)NC(=O)[C@@H](NC(=O)CNC(=O)[C@@H]1CCCN1C(=O)[C@H](CCC(=O)O)NC(=O)[C@H](CC(C)C)NC(=O)CNC(=O)[C@@H](NC(=O)[C@@H](NC(=O)[C@@H](NC(=O)[C@H](C)NC(=O)[C@@H](CCC(=O)O)NC(=O)[C@@H](N)[C@@H](C)O)[C@@H](C)O)[C@@H](C)CC)[C@@H](C)O)[C@@H](C)O)[C@@H](C)O)[C@@H](C)CC)C(C)C)C(=O)N[C@@H](C)C(=O)N[C@@H](CC(C)C)C(=O)O` [D-Glu-FNIII14, T-[D-Glu]-ATITGLEPGTEYTIYVIAL] (H-T[dE]ATITGLEPGTEYTIYVIAL-OH; N-terminus and C-terminus assumed): under “37° C.”, the “stability of activity” value is “did not exhibit a decrease of its activity in the serum”. For the same molecule, for the setting “90% human serum, 37° C.”, the “increase of activity in the serum” value is not below 20% and the “residual adhesion inhibitory activity after serum treatment” value was “over 100%”. Moreover, under “aminopeptidase or the like in human serum”, the “resistance to decomposition in human serum” value was “exhibited resistance to decomposition”. The “time at which decomposition tendency was exhibited in serum” value (long term stability over 60 hours, FIG. 2D) is not below 50 h.

“TEATITGLEPGTEYTIYVIAL [FNIII14, reference compound]”: the “stability of activity” value (37° C.) is reported as “rapidly lost its activity within 2 hours”. For the same molecule, the “residual adhesion inhibitory activity after serum treatment” value (after 20 hours in 90% human serum, 37° C., FIG. 2A) is on record as “about 60%”.

(Values after patent publication US9327013B2, “Activity enhancer for anticancer agent” (TOKYO UNIVERSITY OF SCIENCE FOUNDATION, priority 2011, dated 2016).)
